Results from patent publication US8278333B2, “Crystals of benzoxadiazole derivative” (Astellas Pharma Inc., priority 2006, dated 2012).
“Also recorded” adds a separate entry of the source.

How the values were obtained:
[1] = Hygroscopicity test (VTI SGA-100, 25° C., 5 to 95% relative humidity); format: physicochemical; conditions: for hygroscopicity (in words): 5 to 95% relative humidity
Procedure: The measurement was carried out using “DVS” or “SGA-100”, under the conditions of temperature: 25° C., measurement range: 5 to 95% relative humidity, and measurement interval: 5% relative humidity.
For the measurement of hygroscopicity, “VTI SGA-100” was used under the conditions of temperature: 25° C., measurement range: 5 to 95% relative humidity, and measurement interval: 5% relative humidity.

[2] = Photo stability test (impurity by HPLC after 1.2 million lux-hours); format: physicochemical; conditions: after preservation under 1.2 million lux-hours of integrated luminance, 25° C.
Procedure: The amount of impurity was measured through HPLC using a preserved sample, under 1.2 million lux-hours (temperature: 25° C.) of integrated luminance, using a light stability testing device LTL-200D3J-15.
The amount of impurity was measured through HPLC using a preserved sample, under 1.2 million lux-hours (temperature: 25° C.) of integrated luminance, using a light stability testing device LTL-200D3J-15. • HPLC Conditions • Device: LC1100 (LC-5) manufactured by Agilent • Mobile phase: A: 0.01 mol/L, NaClO4 buffer (pH 2.5), B: MeCN • Flow rate: 0.2 mL/min • Column: Inertsil ODS-3 3 um (2.1 mm×100 mm) • Column temperature: 40° C. • Gradient condition: Bconc. 20 to 90% (0 to 18 min), 90% (18 to 23 min), 20% (23.1 to 33 min) • Injection volume: 1 μL • Autosampler temperature: 5° C. • Detection wavelength: 254 nm

SMILES	hygroscopicity (in words) [1]	Impurity Increase Amount (%) [2]	Impurity Increase Amount (%) ([2]; listed as α-form Crystal)	Impurity Increase Amount (%) ([2]; listed as β-form Crystal)	Impurity Increase Amount (%) ([2]; listed as γ-form Crystal)	relative humidity from which a drastic increase in weight is shown [1]	relative humidity from which hygroscopicity gradually starts [1]	moisture retained ([1]; at a relative humidity of about 95%)	Impurity Increase Amount (%) ([2]; listed as δ-form Crystal)
CC(C)c1nnc(-c2ccc(-c3ccccc3)nc2)n1-c1cccc2nonc12 [α-form crystal, 4-[3-isopropyl-5-(6-phenyl-3-pyridyl)-4H-1,2,4-triazol-4-yl]-2,1,3-benzoxadiazole]	less than that of the known δ-form crystal; also recorded: relatively low hygroscopicity as compared to the known δ-form crystal	0.0%	0.0%						
CC(C)c1nnc(-c2ccc(-c3ccccc3)nc2)n1-c1cccc2nonc12 [β-form crystal, 4-[3-isopropyl-5-(6-phenyl-3-pyridyl)-4H-1,2,4-triazol-4-yl]-2,1,3-benzoxadiazole]	no hygroscopicity	0.0%		0.0%					
CC(C)c1nnc(-c2ccc(-c3ccccc3)nc2)n1-c1cccc2nonc12 [γ-form crystal, 4-[3-isopropyl-5-(6-phenyl-3-pyridyl)-1,2,4-triazol-4-yl]-2,1,3-benzoxadiazole]	no hygroscopicity	0.0%			0.0%				
CC(C)c1nnc(-c2ccc(-c3ccccc3)nc2)n1-c1cccc2nonc12 [δ-form crystal, 4-[3-isopropyl-5-(6-phenyl-3-pyridyl)-4H-1,2,4-triazol-4-yl]-2,1,3-benzoxadiazole, reference compound]		1.0%				about 80%	about 50%	approximately 2%	1.0%
